According to US20080039410A1, “Inositol 1,4,5-Trisphosphate Receptor Mutants and Uses Thereof” (priority 2004, published 2008):

How the values were obtained:
Assay type in all cases: cell-based, rat
[1] = test system: S2+ InsP3R-1; assay: CCh concentration-response of Ca2+ release in Dt-40 3ko cells expressing m3R and S2+ InsP3R-1 constructs; conditions: for maximum peak Δ response to CCh: Fura-2 340/380 ratio; for fold change from WT (CCh EC50): S2 + InsP3R-1 constructs, Table 2; for EC50: fit of normalized initial peak, read-out: EC50 for CCh-induced Ca^2+ release
From the text: The rat S2^+ InsP3R-1 in the expression plasmid pIRES-GFP was digested with the restriction endonuclease SalI. The overhang created by digestion was blunted by using T4 polymerase. An EcoRI linker was then ligated onto the blunted ends of the construct. The entire receptor DNA was excised from the plasmid using EcoRI and ligated into the plasmid MXT-1. The region containing the S2^− splice variant and potential PKA phosphorylation sites was excised from its backbone in pCDNA 3.1+ by RsrII and KasI and ligated into the InsP3R construct in MXT-1. The potential PKA phosphorylation sites Ser-1589 and Ser-1755 were mutated, individually in both splice variants and together in the S2^− splice variant, to alanines or glutamates by using sequential PCR mutagenesis. The outside primers used for the mutagenesis reaction flanked the restriction sites RsrII and KasI. Following mutation, the resulting fragments were cut with RsrII and KasI and inserted into the InsP3R-1 backbone at the corresponding sites. The mutations were confirmed by Big Dye fluorescent sequencing. Mutated receptor DNAs were excised from MXT-1 by using EcoRI and ligated into the mammalian expression vector pGW (provided by Dr. David Yue, Johns Hopkins University). Orientation was confirmed by using restriction enzyme digestion. Mutants were named based on the splice variant, either S2+ or S2− followed by the amino acid present at position 1589 and 1755. Thus, a mutation in S2^+ InsP3R-1 S1755E is designated, “S2+SE,” and in InsP3R-1 […] S1755A is designated “S2^−SA”. Similarly, an S2− InsP3R-1 with mutations in both S1589E and S1755E is designated “S2−EE”. The numbering of residues is based on the full-length rat InsP3R-1.
Dt-40 cells lacking all three InSP3 receptor subtypes were transfected by using electroporation at 350 V and 950 microfarads (4-mm gap cuvette). 2×10^7 cells were co-transfected with 25 μg of the InsP3R-1 cDNA, 25 μof the muscarinic type 3 (m3R) receptor DNA, and 4 μg of the red fluorescent protein plasmid pHcRed1-N1 (Clontech). Cells were incubated with DNA in 500 μl of Opti-MEM media (Invitrogen) on ice for 10 min. The cell/DNA mixture was electroporated, incubated on ice for 30 min, increased to 5 ml with Opti-MEM, and placed in a 5% CO2 incubator at 39° C. for 5 h. The cells were then centrifuged and resuspended in 12 ml of complete RPMI media (Invitrogen). Transfection efficiency was typically ˜20%. Experiments were performed within 32 h of transfection.
Transfected Dt-40 3ko cells were washed once in a HEPES-buffered physiological saline solution (HEPES-PSS) containing (in mM) 5.5 glucose, 137 NaCl, 0.56 MgCl2, 4.7 KCl, 1 Na2HPO4, 10 HEPES (pH 7.4), 1.2 CaCl2, and 1% w/v bovine serum albumin. Cells were then resuspended in bovine serum albumin HEPES-PSS with 1 μM Fura-2 (AM), placed on a 15-mm glass coverslip in a low volume perfusion chamber, and allowed to adhere for 30 min at room temperature. Cells were perfused continuously for 10 min with HEPES-PSS before experimentation to allow complete Fura-2 de-esterification. A field of cells for each experiment was chosen that contained a wide range of transfection efficiency based upon the intensity of red fluorescence emitted when excited at 560 nm. Individual cells that had emission gray levels between 1500 and 2500 were subsequently chosen to standardize expression levels. [Ca^2+]i imaging was performed essentially as described previously by using an inverted epifluorescence Nikon microscope with a 40× oil immersion objective lens (numerical aperture, 1.3) (100). Cells were excited alternately with light at 340 and 380±10 nm bandpass filters (Chroma, Rockingham, Vt.) using a monochrometer (TILL Photonics, Pleasanton, Calif.). Fluorescence images were captured and digitized with a digital camera driven by TILL Photonics software. Images were captured every 2 s with an exposure of 2 ms and 4 by 4 binning. 340/380 ratio images were calculated online and stored immediately to a hard disk. […]

[2] = test system: S2− InsP3R-1; assay: Potentiation of CCh-induced Ca2+ release after PKG activation (8-Br cGMP), S2− InsP3R-1 constructs in DT-40 3ko cells
Description: Transfected DT-40 3ko cells were washed once in a HEPES-buffered physiological saline solution (HEPES-PSS) containing (in mM) 5.5 glucose, 137 NaCl, 0.56 MgCl2, 4.7 KCl, 1 Na2HPO4, 10 HEPES (pH 7.4), 1.2 CaCl2 and 1% w/v Bovine Serum Albumin. Cells were then resuspended in BSA HEPES-PSS with 1 μM Fura-2 (AM), placed on a 15 mm glass coverslip in a low volume perfusion chamber (Warner Instruments) and allowed to adhere for 30 minutes at room temperature. Cells were perfused continually for 10 minutes with HEPES-PSS before experimentation to allow Fura-2 de-esterification. A field of cells for each experiment was chosen that contained a wide range of transfection efficiency based upon the intensity of red fluorescence emitted when excited at 560 nm. [Ca^2+]i imaging was performed essentially as previously described using an inverted epifluorescence Nikon microscope with a 40× oil immersion objective lens (numerical aperture, 1.3). […] Fluorescence images were captured and digitized with a digital camera driven by TILL Photonics software. […] 340/380 ratio images were calculated online and stored immediately to hard disk.
The effects of treatment were determined by normalizing the peak change in fluorescence ratio by stimulation following forskolin or 8-Br cGMP exposure to that of stimulation in control HEPES-PSS. […]

[3] = test system: S2− InsP3R-1; assay: Potentiation of CCh-induced Ca2+ release after PKA activation (forskolin), S2− InsP3R-1 constructs in DT-40 3ko cells; conditions: low affinity indicator Fura-2-FF

| Substance | maximum peak Δ response to CCh [1] [ratio units] | fold change from WT (CCh EC50) [1] [fold] | EC50 [1] [nM] | fold more sensitive than S2+WT (CCh-induced Ca^2+ release) [1] [fold] | fold more sensitive than nonphosphorylatable S2+SA [1] [fold] | sensitivity of CCh-induced Ca^2+ release relative to other constructs [1] | effect of 8-Br cGMP treatment on CCh-induced Ca^2+ release ([2]; 10 μM 8-Br cGMP) | Ca^2+ release after PKG activation ([2]; S2 − InsP3R-1 constructs, Table 2) | fold potentiation of CCh-induced Ca^2+ release by forskolin [3] [fold] |
| --- | --- | --- | --- | --- | --- | --- | --- | --- | --- |
| S2+ES: S2+ InsP3R-1, long splice variant with S1589E | 0.59±0.2 | 1.3 | 23.7 ± 1.2 |  |  |  |  |  |  |
| S2+SE: phosphomimetic S2+ InsP3R-1, long splice variant of S1755E | 0.59±0.1 | 8.9 | 3.6 ± 0.2 | ~9 | ~32 | increased sensitivity |  |  |  |
| S2−WT: wild-type rat type-1 InsP3 receptor, peripheral short S2− splice variant (SEQ ID NO: 17) |  |  |  |  |  |  | no effect | no change | ~4.5 |
